# “And” between values parts separate entries of the source, which are not always exact repeats. Identical values can stand only once.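 Grown in 96-well plates, cells were treated for 48 hours with each compound at five concentrations. Insufficient inhibition: endpoint recorded as highest concentration tested. Abbreviation: GI50, concentration required for 50% inhibition of growth. At the TGI there is no net growth.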
# What was measured:
# Assay in all cases: NCI-60 cell line screen, 48 h
# ACHN renal = tested on: ACHN renal
# COLO 205 colon = tested on: COLO 205 colon
# IGROV1 ovarian = tested on: IGROV1 ovarian
# K-562 leukemia = tested on: K-562 leukemia
# NCI-H23 lung = tested on: NCI-H23 lung
# OVCAR-5 ovarian = tested on: OVCAR-5 ovarian
# OVCAR-8 ovarian = tested on: OVCAR-8 ovarian
# SF-539 CNS = tested on: SF-539 CNS
# SW-620 colon = tested on: SW-620 colon
# UACC-62 melanoma = tested on: UACC-62 melanoma
Compound,TGI (ACHN renal),TGI (COLO 205 colon),TGI (IGROV1 ovarian),TGI (K-562 leukemia),TGI (NCI-H23 lung),TGI (OVCAR-5 ovarian),TGI (OVCAR-8 ovarian),TGI (SF-539 CNS),TGI (SW-620 colon),TGI (UACC-62 melanoma),GI50 (ACHN renal) [µM],GI50 (COLO 205 colon),GI50 (IGROV1 ovarian),GI50 (K-562 leukemia) [µM],GI50 (NCI-H23 lung) [µM],GI50 (OVCAR-5 ovarian) [µM],GI50 (OVCAR-8 ovarian) [µM],GI50 (SF-539 CNS) [µM],GI50 (SW-620 colon) [µM],GI50 (UACC-62 melanoma) [µM]
Cc1ccc(-c2cc(=O)c3cc(C)c(C)c(C(=O)O)c3o2)cc1[N+](=O)[O-],> 100 µM,> 100 µM,> 100 µM,> 100 µM,> 100 µM,> 100 µM,> 100 µM,> 100 µM,> 100 µM,> 100 µM,,,,,,,,,,
COc1cccc(NC(=O)c2ccc(NC3=C(Cl)C(=O)N(Cc4ccccc4)C3=O)cc2)c1,19 µM,> 100 µM,28.7 µM,47.2 µM,28.6 µM,65.7 µM,16.5 µM,31 µM,25.7 µM,28.8 µM,6.22,23.7 µM,13.3 µM,18.9,15.3,27.5,4.17,17.3,10.3,15.4
CCCC(=O)Nc1c(I)cc(I)c(CC(CC)C(=O)O)c1I (stereo not drawn),> 100 µM,> 100 µM,> 100 µM,> 100 µM,> 100 µM,> 100 µM,> 100 µM,> 100 µM,> 100 µM,> 100 µM,> 100,> 100 µM,> 100 µM,> 100,> 100,> 100,> 100,> 100,> 100,> 100
C=C(C)[C@@H]1CC[C@]2(CN)CC[C@]3(C)[C@H](CC[C@@H]4[C@@]5(C)CCC(N)[C@@](C)(CO)[C@@H]5CC[C@]43C)[C@@H]12 (stereo partly drawn),3.29 µM,3.38 µM,3.65 µM,1.06 µM,3.61 µM,3.15 µM,3.57 µM,3.26 µM,3.62 µM,3.33 µM,1.86,1.75 µM,1.92 µM,0.325,1.96,1.73,1.86,1.79,1.8,1.85
CC(C)C1NC(=O)[C@H](C)OC(=O)[C@@H](C(C)C)NC(=O)[C@@H](C)OC(=O)C(C(C)C)NC(=O)[C@H](C)OC1=O (stereo partly drawn),> 100 µM,> 94.8 µM,> 100 µM,> 59.3 µM,> 100 µM,> 100 µM,> 100 µM,> 81.7 µM,> 51.7 µM,> 100 µM,,,,,,,,,,
N/C(=N\N=C\c1ccc(O)c(O)c1)NO,> 100 µM,> 100 µM,> 100 µM,> 100 µM,> 100 µM,> 100 µM,> 100 µM,> 100 µM,> 100 µM,> 100 µM,,,,,,,,,,
CC(C)c1cc(C(=O)[O-])c(O)c(C(C)C)c1.CC(C)c1cc(C(=O)[O-])c(O)c(C(C)C)c1.CC(C)c1cc(C(=O)[O-])c(O)c(C(C)C)c1.CC(C)c1cc(C(=O)[O-])c(O)c(C(C)C)c1.CC(C)c1cc(C(=O)[O-])c(O)c(C(C)C)c1.CC(C)c1cc(C(=O)[O-])c(O)c(C(C)C)c1.[Cu+2].[Mn+2].[Mn+2],> 100 µM,25.6 µM,38.4 µM,50.4 µM,45.6 µM,49.3 µM,81 µM,39.8 µM,29.5 µM,34.4 µM,31.7,10.9 µM,15.2 µM,12.8,20.1,28.2,29.3,22.1,14.8,15.3
COc1ccc(C[C@H]2NC[C@H](O)[C@H]2OC(C)=O)cc1,0.122 µM,0.0256 µM,0.153 µM,0.11 µM,0.52 µM,14.5 µM,0.0897 µM,0.14 µM,0.15 µM,0.225 µM,,,,,,,,,,
COC(=O)CCCNC(=O)C(=O)c1c(O)c(O)c(C(C)C)c2cc(C)c(-c3c(C)cc4c(C(C)C)c(O)c(O)c(C(=O)C(=O)NCCCC(=O)OC)c4c3O)c(O)c12,4.09 µM,2.03 µM,13 µM,6.88 µM,6.03 µM,> 32.5 µM,2.5 µM,5.17 µM,5.52 µM,2.07 µM,0.21,0.382 µM,0.499 µM,0.246,0.363,0.781,0.604,0.997,0.74,0.657
CCOC(=O)c1csc(-c2nc(CCNC(=O)c3ccccc3)sc2Cl)n1,> 100 µM,> 100 µM,> 100 µM,> 100 µM,> 100 µM,> 100 µM,> 100 µM,> 100 µM,> 100 µM,> 100 µM,,,,,,,,,,
NC(N)=NC(N)=Nc1ccc(S(N)(=O)=O)cc1,> 100 µM,> 100 µM,> 100 µM,> 100 µM,> 100 µM,> 100 µM,> 100 µM,> 100 µM,> 100 µM,> 100 µM,,,,,,,,,,
COc1ccc(-c2cc(-c3ccc(Cl)cc3)nc(SCCCCCCC(=O)NO)n2)cc1,2.67 µM,11.5 µM,12.5 µM,8.86 µM,7.81 µM,12.5 µM,> 50 µM,6.44 µM,10.2 µM,3.51 µM,1.11,1.88 µM,1.41 µM,1.72,1.56,1.66,1.53,1.63,1.43,1.13
O=C(COC(=O)c1cccc2c(=O)c3ccccc3[nH]c12)Nc1ccc(S(=O)(=O)Nc2ncccn2)cc1,> 100 µM,> 100 µM,> 100 µM,90.7 µM,> 100 µM,> 100 µM,> 100 µM,39.1 µM,> 100 µM,39.7 µM,,,,,,,,,,
Clc1ccc(COC(Cn2ccnc2)c2ccc(Cl)cc2Cl)c(Cl)c1 (stereo not drawn),16.1 µM and 30.1 µM and 24.6 µM,3.18 µM and 22.1 µM and 16.1 µM,15 µM and 24.7 µM and 10.9 µM,21.2 µM and 16.4 µM,14.6 µM and 25.8 µM and 22.4 µM,21.7 µM and 32.4 µM and 25.8 µM,27.3 µM and 36.9 µM and 22.1 µM,27.8 µM and 32.7 µM and 27.7 µM,17.5 µM and 29.9 µM and 28.8 µM,10.2 µM and 25 µM and 23.3 µM,4.51,1.62 µM and 10.1 µM and 3.78 µM,3.59 µM and 10.6 µM and 1.37 µM,,3.03,9.81,4.21,,4.34,2.06
COc1cc(=O)oc(/C=C/C=C/C=C/C(C)=C\C2(C)OC(C)C(C)(O)C2O)c1C (stereo not drawn),> 100 µM,> 100 µM,> 100 µM,> 100 µM,> 100 µM,> 100 µM,> 100 µM,> 100 µM,> 100 µM,> 100 µM,,,,,,,,,,

# Reference: PubChem BioAssay (NCI)
